Data as given in US10688093B2, “Methods, compositions, and uses of novel Fyn kinase inhibitors” (priority 2015, dated 2020).

Target: full-length recombinant human FYN A (Homo sapiens (Human), UniProt P06241)
Assay: ADP-Glo Kinase Assay of FYN kinase inhibition
Assay type: biochemical
Settings: primary screen, initial compounds
Summary of the method: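 GST-tagged full-length FYN A (baculovirus, Sf9) at 3 pg preincubated 30 min RT with compound (10-point 3-fold series from 10 μM) in Tris pH 7.5/MgCl2 buffer. 12-mer tyrosine peptide plus 12.5 pmol ATP added, 90 min RT; ADP measured by ADP-Glo luminescence, IC50 from dose-response.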

Sequence of full-length recombinant human FYN A (P06241 whole entry): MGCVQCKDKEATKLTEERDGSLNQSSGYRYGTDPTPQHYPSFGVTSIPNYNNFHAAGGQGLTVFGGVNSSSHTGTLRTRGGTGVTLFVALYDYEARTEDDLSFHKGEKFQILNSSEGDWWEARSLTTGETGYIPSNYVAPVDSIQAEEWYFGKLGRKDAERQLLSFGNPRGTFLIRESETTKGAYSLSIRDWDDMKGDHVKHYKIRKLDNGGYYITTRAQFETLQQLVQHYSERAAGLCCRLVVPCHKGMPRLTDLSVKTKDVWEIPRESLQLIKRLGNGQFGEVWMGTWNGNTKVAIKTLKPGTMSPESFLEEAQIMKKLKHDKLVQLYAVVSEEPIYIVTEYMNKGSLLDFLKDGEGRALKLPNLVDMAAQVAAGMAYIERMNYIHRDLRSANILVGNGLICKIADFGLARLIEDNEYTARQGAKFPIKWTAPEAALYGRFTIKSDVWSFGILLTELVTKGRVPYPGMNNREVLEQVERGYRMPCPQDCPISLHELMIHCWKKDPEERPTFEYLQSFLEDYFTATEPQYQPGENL

SMILES	IC50 [µM]
NC(=O)c1cccc(-c2ccc3ncc(-c4ccncc4)n3n2)c1 [Compound 313, 3-[3-(4-pyridyl)imidazo [1,2-b]pyridazin-6-yl]benzamide]	1.2
CC(=O)Nc1cccc(-c2cnc3ccc(-c4ccccc4)nn23)c1 [Compound 314, N-[3-(6-phenylimidazo [1,2-b]pyridazin-3-yl)phenyl] acetamide]	0.773
CC(=O)Nc1cccc(-c2cnc3ccc(-c4cccc(O)c4)nn23)c1 [Compound 315, N-[3-[6-(3-hydroxyphenyl)imidazo[1,2-b]pyridazin-3-yl]phenyl] acetamide]	1.07
COc1ccc(-c2cnc3ccc(-c4cccc(F)c4)nn23)cc1OC [Compound 316, 3-(3,4-dimethoxy-phenyl)-6-(3-fluorophenyl) imidazo[1,2-b]pyridazine]	1.04
CC(=O)Nc1cccc(-c2cnc3ccc(-c4ccc(CO)cc4)nn23)c1 [Compound 317, N-[3-[6-[4-(hydroxymethyl)phenyl]imidazo [1,2-b]pyridazin-3-yl]phenyl] acetamide]	0.494
OCc1cccc(-c2cnc3ccc(-c4ccccc4)nn23)c1 [Compound 318, [3-(6-phenylimidazo [1,2-b]pyridazin-3-yl)phenyl] methanol]	1.75
Clc1cccc(-c2ccc3ncc(-c4ccncc4)n3n2)c1 [Compound 319, 6-(3-chlorophenyl)-3-(4-pyridyl)imidazo [1,2-b]pyridazine]	0.258
COc1cc(-c2ccc3ncc(-c4ccc(OC)c(OC)c4)n3n2)ccc1O [Compound 320, 4-[3-(3,4-dimethoxy-phenyl)imidazo [1,2-b]pyridazin-6-yl]-2-methoxy-phenol]	0.222
COc1ccccc1-c1ccc2ncc(-c3cccc(NC(C)=O)c3)n2n1 [Compound 321, N-[3-[6-(2-methoxyphenyl)imidazo[1,2-b]pyridazin-3-yl]phenyl] acetamide]	2.85
CC(=O)Nc1cccc(-c2cnc3ccc(-c4cccc(C(F)(F)F)c4)nn23)c1 [Compound 322, N-[3-[6-[3-(trifluoromethyl)phenyl]imidazo [1,2-b]pyridazin-3-yl]phenyl] acetamide]	1.6
COc1ccccc1-c1ccc2ncc(-c3cccc(CO)c3)n2n1 [Compound 323, [3-[6-(2-methoxyphenyl)imidazo[1,2-b]pyridazin-3-yl]phenyl] methanol]	1.07
COc1cc(-c2ccc3ncc(-c4cccc(CO)c4)n3n2)ccc1O [Compound 324, 4-[3-[3-(hydroxymethyl)phenyl]imidazo [1,2-b]pyridazin-6-yl]-2-methoxy-phenol]	0.153
c1ccc(-c2cnc3ccc(-c4ccncc4)nn23)cc1 [Compound 325, 3-phenyl-6-(4-pyridyl)imidazo [1,2-b]pyridazine]	6.93
Oc1cccc(-c2ccc3ncc(-c4ccncc4)n3n2)c1 [Compound 326, 3-[3-(4-pyridyl)imidazo [1,2-b]pyridazin-6-yl]phenol]	0.223
COc1ccc(-c2cnc3ccc(-c4ccccc4)nn23)cc1OC [Compound 327, 3-(3,4-dimethoxy-phenyl)-6-phenyl-imidazo[1,2-b]pyridazine]	0.42
COc1ccc(-c2cnc3ccc(-c4ccc(F)cc4)nn23)cc1OC [Compound 328, 3-(3,4-dimethoxy-phenyl)-6-(4-fluorophenyl) imidazo[1,2-b]pyridazine]	1.33
COc1cc(-c2ccc3ncc(-c4cccc(NC(C)=O)c4)n3n2)cc(OC)c1OC [Compound 329, N-[3-[6-(3,4,5-trimethoxyphenyl)imidazo[1,2-b]pyridazin-3-yl]phenyl] acetamide]	3.13
COc1cc(-c2ccc3ncc(-c4cccc(NC(C)=O)c4)n3n2)ccc1O [Compound 330, N-[3-[6-(4-hydroxy-3-methoxy-phenyl)imidazo [1,2-b]pyridazin-3-yl]phenyl] acetamide]	0.093

SMILES	IC50 [µM]
c1ccc(-c2cnc3ccc(-c4cccnc4)nn23)cc1 [Compound 331, 3-phenyl-6-(3-pyridyl)imidazo [1,2-b]pyridazine]	3.84
OCc1ccc(-c2ccc3ncc(-c4ccncc4)n3n2)cc1 [Compound 332]	0.255
COc1ccc(-c2cnc3ccc(-c4ccccc4OC)nn23)cc1OC [Compound 333, 3-(3,4-dimethoxy-phenyl)-6-(2-methoxyphenyl) imidazo[1,2-b]pyridazine]	3.12
COc1ccc(-c2cnc3ccc(-c4ccoc4)nn23)cc1OC [Compound 334, 3-(3,4-dimethoxy-phenyl)-6-(3-furyl)imidazo [1,2-b]pyridazine]	0.983
CC(=O)Nc1cccc(-c2cnc3ccc(-c4ccoc4)nn23)c1 [Compound 335, N-[3-[6-(3-furyl)imidazo [1,2-b]pyridazin-3-yl]phenyl] acetamide]	1.26
OCc1cccc(-c2cnc3ccc(-c4ccoc4)nn23)c1 [Compound 336, [3-[6-(3-furyl)imidazo [1,2-b]pyridazin-3-yl]phenyl] methanol]	3.99
CN(C)c1ccc(-c2ccc3ncc(-c4ccncc4)n3n2)cc1 [Compound 337, N,N-dimethyl-4-[3-(4-pyridyl)imidazo[1,2-b]pyridazin-6-yl]aniline]	0.398
CS(=O)(=O)c1ccc(-c2ccc3ncc(-c4cccc(CO)c4)n3n2)cc1 [Compound 338, [3-[6-(4-methylsulfonyl-phenyl)imidazo [1,2-b]pyridazin-3-yl]phenyl] methanol]	3.04
CC(=O)Nc1cccc(-c2ccc3ncc(-c4ccccc4)n3n2)c1 [Compound 339, N-[3-(3-phenylimidazo [1,2-b]pyridazin-6-yl)phenyl] acetamide]	3.66
c1ccc(-c2ccc3ncc(-c4ccncc4)n3n2)cc1 [Compound 340, 6-phenyl-3-(4-pyridyl)imidazo [1,2-b]pyridazine]	0.229
Fc1cccc(-c2ccc3ncc(-c4ccncc4)n3n2)c1 [Compound 341, 6-(3-fluorophenyl)-3-(4-pyridyl) imidazo[1,2-b]pyridazine]	0.356
COc1cccc(-c2ccc3ncc(-c4ccc(OC)c(OC)c4)n3n2)c1 [Compound 342, 3-(3,4-dimethoxy-phenyl)-6-(3-methoxyphenyl) imidazo[1,2-b]pyridazine]	0.952
COc1cncc(-c2ccc3ncc(-c4cccc(NC(C)=O)c4)n3n2)c1 [Compound 343, N-[3-[6-(5-methoxy-3-pyridyl)imidazo [1,2-b]pyridazin-3-yl]phenyl] acetamide]	0.614
COc1cncc(-c2ccc3ncc(-c4cccc(CO)c4)n3n2)c1 [Compound 344]	2.14
c1cc(-c2cnc3ccc(-c4ccc5c(c4)OCO5)nn23)ccn1 [Compound 345, 6-(1,3-benzodioxol-5-yl)-3-(4-pyridyl)imidazo [1,2-b]pyridazine]	0.217
c1cc(-c2cnc3ccc(-c4ccoc4)nn23)ccn1 [Compound 346, 6-(3-furyl)-3-(4-pyridyl)imidazo [1,2-b]pyridazine]	1.02
CC(=O)Nc1cccc(-c2cnc3ccc(-c4cccc(Cl)c4)nn23)c1 [Compound 347, N-[3-[6-(3-chlorophenyl)imidazo[1,2-b]pyridazin-3-yl]phenyl] acetamide]	0.37
COc1cccc(-c2ccc3ncc(-c4cccc(NC(C)=O)c4)n3n2)c1 [Compound 348, N-[3-[6-(3-methoxyphenyl)imidazo[1,2-b]pyridazin-3-yl]phenyl] acetamide]	0.409
